Results on 6 molecules are retold here after ChEMBL document CHEMBL5465560, “Selectivity Literature for EUbOPEN Chemogenomic Library” (2024).

Experiment [1] deals with T1, Dual specificity mitogen-activated protein kinase kinase 4 (Homo sapiens) (UniProt P45985).
T1 sequence (whole entry): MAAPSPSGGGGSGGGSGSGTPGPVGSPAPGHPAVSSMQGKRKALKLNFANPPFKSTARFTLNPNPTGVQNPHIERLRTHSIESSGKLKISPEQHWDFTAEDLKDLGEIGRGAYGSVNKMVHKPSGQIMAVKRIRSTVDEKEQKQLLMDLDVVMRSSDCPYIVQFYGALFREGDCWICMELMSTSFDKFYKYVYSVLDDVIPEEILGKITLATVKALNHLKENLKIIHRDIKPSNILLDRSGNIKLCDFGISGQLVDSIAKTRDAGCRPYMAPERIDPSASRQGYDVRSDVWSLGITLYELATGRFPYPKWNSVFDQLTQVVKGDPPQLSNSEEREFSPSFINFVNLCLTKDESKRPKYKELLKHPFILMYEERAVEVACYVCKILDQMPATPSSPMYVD
Nature of the experiment: Selectivity interaction (KinomeScan (DiscoverX)) EUB0000666a MAP2K4. Conditions: at 10 µM.

Experiment [2] addresses Protein-tyrosine kinase 2-beta (Homo sapiens) (UniProt Q14289). Briefly: Selectivity interaction (KinomeScan (DiscoverX)) EUB0000655a PTK2B. As to conditions: at 10 µM.
The target of experiment [3] is T2, Mitogen-activated protein kinase kinase kinase 6 (Homo sapiens) (UniProt O95382).
T2 sequence (whole entry): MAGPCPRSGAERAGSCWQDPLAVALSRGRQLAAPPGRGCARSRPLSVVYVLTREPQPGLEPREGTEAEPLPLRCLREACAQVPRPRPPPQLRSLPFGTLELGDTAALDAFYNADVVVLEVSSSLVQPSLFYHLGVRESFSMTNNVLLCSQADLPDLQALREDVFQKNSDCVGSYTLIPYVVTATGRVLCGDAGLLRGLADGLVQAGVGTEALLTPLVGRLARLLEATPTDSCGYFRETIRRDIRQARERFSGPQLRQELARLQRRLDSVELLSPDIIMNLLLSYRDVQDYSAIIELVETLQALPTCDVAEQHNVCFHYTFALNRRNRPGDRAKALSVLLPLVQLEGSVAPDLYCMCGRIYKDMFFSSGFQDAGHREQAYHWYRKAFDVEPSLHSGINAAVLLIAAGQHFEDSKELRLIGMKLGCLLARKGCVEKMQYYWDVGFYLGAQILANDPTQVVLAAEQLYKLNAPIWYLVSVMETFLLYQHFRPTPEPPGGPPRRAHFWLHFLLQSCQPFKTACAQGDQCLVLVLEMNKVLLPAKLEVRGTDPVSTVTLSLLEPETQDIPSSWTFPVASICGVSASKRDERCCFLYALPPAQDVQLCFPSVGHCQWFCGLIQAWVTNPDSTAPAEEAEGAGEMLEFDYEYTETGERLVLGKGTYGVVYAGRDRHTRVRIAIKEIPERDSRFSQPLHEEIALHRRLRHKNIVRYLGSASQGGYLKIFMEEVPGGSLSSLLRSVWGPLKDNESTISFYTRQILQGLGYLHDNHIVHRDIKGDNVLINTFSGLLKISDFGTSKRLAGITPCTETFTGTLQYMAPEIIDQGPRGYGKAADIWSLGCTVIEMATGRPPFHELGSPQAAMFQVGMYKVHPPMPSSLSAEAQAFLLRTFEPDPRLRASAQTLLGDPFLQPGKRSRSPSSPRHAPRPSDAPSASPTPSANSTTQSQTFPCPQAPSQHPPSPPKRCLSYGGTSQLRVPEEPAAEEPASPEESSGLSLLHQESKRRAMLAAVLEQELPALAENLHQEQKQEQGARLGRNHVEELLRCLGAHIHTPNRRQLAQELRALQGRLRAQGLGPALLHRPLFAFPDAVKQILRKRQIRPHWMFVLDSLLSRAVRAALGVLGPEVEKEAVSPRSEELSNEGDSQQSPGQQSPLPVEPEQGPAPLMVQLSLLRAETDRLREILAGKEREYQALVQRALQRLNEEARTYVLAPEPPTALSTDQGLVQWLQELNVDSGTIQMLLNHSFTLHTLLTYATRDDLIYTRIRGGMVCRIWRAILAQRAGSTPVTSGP
Nature of the experiment: Selectivity interaction (ActivX KiNativ screen (kinase selectivity in THP-1 cell lysates)) EUB0000639a MAP3K6. Type of experiment: subcellular. As to conditions: lysate, at 5 µM.

For a further experiment, the target named is SRSF protein kinase 1 (Homo sapiens, UniProt Q96SB4). Conditions: at 10 µM.
Chain of SRSF protein kinase 1 (Q96SB4 whole entry): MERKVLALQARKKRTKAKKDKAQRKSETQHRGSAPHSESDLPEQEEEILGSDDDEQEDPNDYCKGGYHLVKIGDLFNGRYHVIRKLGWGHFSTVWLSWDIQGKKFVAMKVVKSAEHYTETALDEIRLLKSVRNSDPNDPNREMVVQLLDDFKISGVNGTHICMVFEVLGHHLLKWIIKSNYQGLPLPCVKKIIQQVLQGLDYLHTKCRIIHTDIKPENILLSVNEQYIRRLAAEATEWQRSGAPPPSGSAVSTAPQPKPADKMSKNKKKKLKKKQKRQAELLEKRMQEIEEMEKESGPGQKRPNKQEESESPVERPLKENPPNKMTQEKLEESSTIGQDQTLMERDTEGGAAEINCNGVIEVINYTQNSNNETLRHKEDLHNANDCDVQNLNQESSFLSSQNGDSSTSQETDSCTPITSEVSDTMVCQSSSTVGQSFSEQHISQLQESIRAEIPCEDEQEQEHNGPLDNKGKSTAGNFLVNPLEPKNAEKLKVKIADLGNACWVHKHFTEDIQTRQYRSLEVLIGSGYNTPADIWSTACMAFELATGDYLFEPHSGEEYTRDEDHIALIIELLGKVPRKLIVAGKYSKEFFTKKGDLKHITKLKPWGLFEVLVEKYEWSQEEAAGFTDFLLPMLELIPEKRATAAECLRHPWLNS
The target in experiment [4] is Mitogen-activated protein kinase 9 (Homo sapiens, UniProt P45984). Nature of the experiment: Selectivity interaction (ProQinase) EUB0000171b MAPK9.
Chain of Mitogen-activated protein kinase 9 (P45984 whole entry, looked up): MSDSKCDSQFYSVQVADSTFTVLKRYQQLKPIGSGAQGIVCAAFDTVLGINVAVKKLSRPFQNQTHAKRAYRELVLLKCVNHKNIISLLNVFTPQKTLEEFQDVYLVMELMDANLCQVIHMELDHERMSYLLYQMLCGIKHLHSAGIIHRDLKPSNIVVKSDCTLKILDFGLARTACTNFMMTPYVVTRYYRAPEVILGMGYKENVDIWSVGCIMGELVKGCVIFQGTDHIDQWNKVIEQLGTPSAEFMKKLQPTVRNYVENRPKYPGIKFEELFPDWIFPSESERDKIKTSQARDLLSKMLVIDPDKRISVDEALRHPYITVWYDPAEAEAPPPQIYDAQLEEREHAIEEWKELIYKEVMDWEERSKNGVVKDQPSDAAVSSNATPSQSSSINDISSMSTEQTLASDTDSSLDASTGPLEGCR
Experiment [5] is described as follows: Selectivity interaction (KinomeScan (DiscoverX)) EUB0000045b PKNB.

Chain of Protein-tyrosine kinase 2-beta (Homo sapiens) (Q14289 whole entry, looked up): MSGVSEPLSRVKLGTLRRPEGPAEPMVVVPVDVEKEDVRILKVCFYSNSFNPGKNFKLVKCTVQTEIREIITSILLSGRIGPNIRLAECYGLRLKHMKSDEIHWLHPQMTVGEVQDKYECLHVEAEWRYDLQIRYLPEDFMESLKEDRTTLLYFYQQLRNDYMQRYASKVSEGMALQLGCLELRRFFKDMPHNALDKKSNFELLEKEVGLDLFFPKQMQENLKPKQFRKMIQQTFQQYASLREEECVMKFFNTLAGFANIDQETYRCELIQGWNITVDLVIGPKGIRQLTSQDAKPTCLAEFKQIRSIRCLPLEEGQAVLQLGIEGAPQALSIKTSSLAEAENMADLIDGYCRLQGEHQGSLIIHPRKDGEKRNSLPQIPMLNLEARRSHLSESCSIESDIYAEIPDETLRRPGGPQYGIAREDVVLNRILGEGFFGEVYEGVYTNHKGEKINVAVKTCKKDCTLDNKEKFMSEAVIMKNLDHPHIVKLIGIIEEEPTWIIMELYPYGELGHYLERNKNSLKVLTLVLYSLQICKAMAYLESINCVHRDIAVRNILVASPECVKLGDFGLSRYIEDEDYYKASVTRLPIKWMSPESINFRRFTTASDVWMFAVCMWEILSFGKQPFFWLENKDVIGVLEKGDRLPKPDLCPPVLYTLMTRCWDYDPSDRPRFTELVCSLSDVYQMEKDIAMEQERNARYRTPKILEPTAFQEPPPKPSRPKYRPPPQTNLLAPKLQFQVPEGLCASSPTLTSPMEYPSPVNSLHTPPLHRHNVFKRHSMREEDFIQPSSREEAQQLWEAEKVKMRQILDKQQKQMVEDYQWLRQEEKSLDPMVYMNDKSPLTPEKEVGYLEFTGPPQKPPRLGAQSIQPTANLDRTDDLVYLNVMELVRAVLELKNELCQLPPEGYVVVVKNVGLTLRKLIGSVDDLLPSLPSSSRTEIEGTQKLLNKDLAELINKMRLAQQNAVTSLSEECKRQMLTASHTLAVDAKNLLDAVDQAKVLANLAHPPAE

As to `O=C(NOC[C@H](O)CO)c1ccc(F)c(F)c1Nc1ccc(I)cc1F`, the % of control in experiment [1] came out at 83%.
In experiment [2], `CN(C)CCOc1ccc(-c2nc(-c3ccncc3)c(-c3ccc4c(c3)CC/C4=N\O)[nH]2)cc1` had a % of control of 100%.
As for `CC[C@@H]1[C@H](F)C(=O)N[C@@H]1COc1nccc2cc(C(N)=O)c(OC)cc12` [ZIMLOVISERTIB], the % of inhibition in experiment [3] was -27%.
In the case of `CCN(CC)CCCCNc1ncc2cc(-c3cc(OC)cc(OC)c3)c(NC(=O)NC(C)(C)C)nc2n1`, at SRSF protein kinase 1, the % of control is 100%.
Turning to `C=CC(=O)Nc1cccc(C(=O)Nc2ccc(Nc3cc(-c4[nH]c(SC)nc4C)ccn3)cc2)c1`, the % of control in experiment [4] (at 1 µM) is 8%; in experiment [4] (at 5 µM) it was 1%.
Consider `C=CC(=O)Nc1cc(-n2c(=O)ccc3cnc4ccc(-c5ccc(NS(C)(=O)=O)cc5)cc4c32)ccc1C`, for which the % of control in experiment [5] (at 1 µM) stood at 41%; in experiment [5] (at 10 µM) it was 90%.
